Experimental data from PMC3426654 (Biochemistry, 2012).

Molecular target: TcUGM (UDP-galactopyranose mutase from Trypanosoma cruzi) (Trypanosoma cruzi, UniProt Q4E1W2)
Test: X-ray crystal structure, […] Å
Format: binding
Conditions: UDP complex, pH 7.5

Row | Structure (SMILES) | X-ray crystal structure, 2.25 Å (crystals reduced by soaking in 60 mM dithionite) | X-ray crystal structure, 2.25 Å (oxidized enzyme)
1 | Cc1cc2c(cc1C)N(C[C@H](O)[C@H](O)[C@H](O)COP(=O)(O)OP(=O)(O)OC[C@H]1O[C@@H](n3cnc4c(N)ncnc43)[C@H](O)[C@@H]1O)c1[nH]c(=O)[nH]c(=O)c1N2 [FADH^−] | In the reduced enzyme, the FAD exhibits a butterfly-like conformation | –
2 | Cc1cc2nc3c(=O)[nH]c(=O)nc-3n(C[C@H](O)[C@H](O)[C@H](O)COP(=O)(O)OP(=O)(O)OC[C@H]3O[C@@H](n4cnc5c(N)ncnc54)[C@H](O)[C@@H]3O)c2cc1C [FAD] | – | In the oxidized state, the electron density maps are consistent with a planar isoalloxazine
